Test results from patent US20260262643A1, “HERBICIDAL BENZOXAZINES” (FMC CORPORATION, priority 2022, published 2026).

Tests used:
corn [1] = assay: Test C postemergence; format: in vivo, Zea mays; settings: 10 days, 0 to 100 scale (0 no effect, 100 complete control)
How it was run: (§1)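 Pre: seeds in loam/sand, directed soil spray. Post: 1–2 leaf plants, 2–10 cm. Cmpd in non-phytotoxic solvent + surfactant. Greenhouse 10 d; visual rating vs untreated, 0 = none, 100 = complete control.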

wheat [2] = assay: Test C postemergence; format: in vivo, Triticum aestivum; settings: Postemergence, 125 g ai/ha; 0 to 100 scale (0 no effect, 100 complete control), 10 days
How it was run: as §1

ragweed [3] = assay: Test C preemergence; format: in vivo, Ambrosia artemisiifolia
How it was run: as §1

blackgrass [4] = assay: Test C postemergence; format: in vivo, Alopecurus myosuroides; settings: 10 days, 0 to 100 scale (0 no effect, 100 complete control)
How it was run: as §1

kochia [5] = assay: Test C preemergence; format: in vivo, Bassia scoparia
How it was run: as §1

blackgrass [6] = assay: Test C preemergence; format: in vivo, Alopecurus myosuroides
How it was run: as §1

ryegrass, Italian [7] = assay: Test C preemergence; format: in vivo, Lolium multiflorum
How it was run: as §1

wheat [8] = assay: Test C preemergence; format: in vivo, Triticum aestivum
How it was run: as §1

ryegrass, Italian [9] = assay: Test C postemergence; format: in vivo, Lolium multiflorum; settings: Postemergence, 125 g ai/ha; 0 to 100 scale (0 no effect, 100 complete control), 10 days
How it was run: as §1

oat, wild [10] = assay: Test C postemergence; format: in vivo, Avena fatua; settings: 10 days, 0 to 100 scale (0 no effect, 100 complete control)
How it was run: as §1

soybean [11] = assay: Test C preemergence; format: in vivo, Glycine max
How it was run: as §1

ragweed [12] = assay: Test C postemergence; format: in vivo, Ambrosia artemisiifolia; settings: Postemergence, 125 g ai/ha; 0 to 100 scale (0 no effect, 100 complete control), 10 days
How it was run: as §1

soybean [13] = assay: Test C postemergence; format: in vivo, Glycine max; settings: Postemergence, 125 g ai/ha; 0 to 100 scale (0 no effect, 100 complete control), 10 days
How it was run: as §1

barnyardgrass [14] = assay: Test C postemergence; format: in vivo, Echinochloa crusgalli; settings: 10 days, 0 to 100 scale (0 no effect, 100 complete control)
How it was run: as §1

barnyardgrass [15] = assay: Test C preemergence; format: in vivo, Echinochloa crusgalli
How it was run: as §1

rice = assay: Test D flooded paddy test; format: in vivo, Oryza sativa; settings: 250 g ai/ha, applied to paddy water, visual rating after 13 to 14 days, scale 0 to 100 (0 no effect, 100 complete control)
How it was run: (§2)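 Seedlings reached the 2-leaf stage, then pots were flooded to 3 cm over the soil surface. Compound was applied into the water, depth was maintained, and plants stayed in the greenhouse 13 to 14 days before visual scoring (0–100) relative to controls.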

barnyardgrass [16] = assay: Test D flooded paddy test; format: in vivo, Echinochloa crus-galli; settings: 250 g ai/ha, applied to paddy water, visual rating after 13 to 14 days, scale 0 to 100 (0 no effect, 100 complete control)
How it was run: as §2

oat, wild [17] = assay: Test C preemergence; format: in vivo, Avena fatua
How it was run: as §1

green foxtail [18] = assay: Test C preemergence; format: in vivo, Setaria viridis
How it was run: as §1

sedge, umbrella = assay: Test D flooded paddy test; format: in vivo, Cyperus difformis; settings: 250 g ai/ha, applied to paddy water, visual rating after 13 to 14 days, scale 0 to 100 (0 no effect, 100 complete control)
How it was run: as §2

pigweed, palmer [19] = assay: Test C preemergence; format: in vivo, Amaranthus palmeri
How it was run: as §1

ducksalad = assay: Test D flooded paddy test; format: in vivo, Heteranthera limosa; settings: 250 g ai/ha, applied to paddy water, visual rating after 13 to 14 days, scale 0 to 100 (0 no effect, 100 complete control)
How it was run: as §2

kochia [20] = assay: Test C postemergence; format: in vivo, Bassia scoparia; settings: 10 days, 0 to 100 scale (0 no effect, 100 complete control)
How it was run: as §1

green foxtail [21] = assay: Test C postemergence; format: in vivo, Setaria viridis; settings: 10 days, 0 to 100 scale (0 no effect, 100 complete control)
How it was run: as §1

horseweed = assay: Test C postemergence; format: in vivo, Erigeron canadensis; settings: 10 days, 0 to 100 scale (0 no effect, 100 complete control)
How it was run: as §1

pigweed, palmer [22] = assay: Test C postemergence; format: in vivo, Amaranthus palmeri; settings: 10 days, 0 to 100 scale (0 no effect, 100 complete control)
How it was run: as §1

corn [23] = assay: Test C preemergence; format: in vivo, Zea mays
How it was run: as §1

[24] = 500 g ai/ha, preemergence, 0 to 100 scale (0 no effect, 100 complete control)
[25] = Preemergence, 125 g ai/ha, 0 to 100 scale, 0 no effect, 100 complete control

For Cc1ccc(-n2cnc(C3(C#N)CC3)n2)cc1C(=O)N1C[C@H](C)Oc2c(Cl)cccc21 [Compound 398], the “Plant response rating, Corn” value (corn [1]; 500 g ai/ha, postemergence) was 80, the “Plant response rating, Corn” value (corn [1]; Postemergence, 125 g ai/ha) was 10 and the “Plant response rating, Wheat” value (wheat [2]) was 20. The “Ragweed plant response rating” value (ragweed [3]; [24]) was 30, the “Plant response rating, Ragweed” value (ragweed [3]; [25]) was 0 and the “Plant response rating, Blackgrass” value (blackgrass [4]; 500 g ai/ha, postemergence) was 90. For the same compound, the “Plant response rating, Blackgrass” value (blackgrass [4]; Postemergence, 125 g ai/ha) was 70, the “Kochia plant response rating” value (kochia [5]; [24]) was 100 and the “Plant response rating, Kochia” value (kochia [5]; [25]) was 90. For the same compound, the “Blackgrass plant response rating” value (blackgrass [6]; [24]) was 40, the “Plant response rating, Blackgrass” value (blackgrass [6]; [25]) was 30 and the “Ryegrass, Italian plant response rating” value (ryegrass, Italian [7]; [24]) was 80. For the same compound, the “Plant response rating, Ryegrass, Italian” value (ryegrass, Italian [7]; [25]) was 40, the “Wheat plant response rating” value (wheat [8]; [24]) was 20 and the “Plant response rating, Wheat” value (wheat [8]; [25]) was 0. For the same compound, the “Plant response rating, Ryegrass, Italian” value (ryegrass, Italian [9]) was 30, the “Plant response rating, Oat, Wild” value (oat, wild [10]; 500 g ai/ha, postemergence) was 60 and the “Plant response rating, Oat, Wild” value (oat, wild [10]; Postemergence, 125 g ai/ha) was 0. The “Soybean plant response rating” value (soybean [11]; [24]) was 60, the “Plant response rating, Soybean” value (soybean [11]; [25]) was 40 and the “Plant response rating, Ragweed” value (ragweed [12]) was 70. For the same compound, the “Plant response rating, Soybean” value (soybean [13]) was 20, the “Plant response rating, Barnyardgrass” value (barnyardgrass [14]; 500 g ai/ha, postemergence) was 50 and the “Plant response rating, Barnyardgrass” value (barnyardgrass [14]; Postemergence, 125 g ai/ha) was 20. The “Barnyardgrass plant response rating” value (barnyardgrass [15]; [24]) was 90, the “Plant response rating, Barnyardgrass” value (barnyardgrass [15]; [25]) was 60 and the “Plant response rating, Rice (Flood)” value (rice) was 15. The “Plant response rating, Barnyardgrass (Flood)” value (barnyardgrass [16]) was 25, the “Oat, Wild plant response rating” value (oat, wild [17]; [24]) was 40 and the “Plant response rating, Oat, Wild” value (oat, wild [17]; [25]) was 0. For the same compound, the “Foxtail, Green plant response rating” value (green foxtail [18]; [24]) was 100, the “Plant response rating, Foxtail, Green” value (green foxtail [18]; [25]) was 100 and the “Plant response rating, Sedge, Umbrella (Flood)” value (sedge, umbrella) was 45. The “Pigweed, Palmer plant response rating” value (pigweed, palmer [19]; [24]) was 100, the “Plant response rating, Pigweed, Palmer” value (pigweed, palmer [19]; [25]) was 100 and the “Plant response rating, Ducksalad (Flood)” value (ducksalad) was 15. For the same compound, the “Plant response rating, Kochia” value (kochia [20]; 500 g ai/ha, postemergence) was 90, the “Plant response rating, Kochia” value (kochia [20]; Postemergence, 125 g ai/ha) was 90 and the “Plant response rating, Foxtail, Green” value (green foxtail [21]; 500 g ai/ha, postemergence) was 90. For the same compound, the “Plant response rating, Foxtail, Green” value (green foxtail [21]; Postemergence, 125 g ai/ha) was 70, the “Plant response rating, Horseweed” value (horseweed; 500 g ai/ha, postemergence) was 60 and the “Plant response rating, Horseweed” value (horseweed; Postemergence, 125 g ai/ha) was 60. The “Plant response rating, Pigweed, Palmer” value (pigweed, palmer [22]; 500 g ai/ha, postemergence) was 100, the “Plant response rating, Pigweed, Palmer” value (pigweed, palmer [22]; Postemergence, 125 g ai/ha) was 90 and the “Corn plant response rating” value (corn [23]; [24]) was 0. The “Plant response rating, Corn” value (corn [23]; [25]) was 0.
